For series [1] the following is noted: cited from earlier work.
For the next series, the system named is rats. Conditions: cited from earlier work.
For another series, the system named is MCF-7 cells. The experiment in a line: Cytotoxicity to MCF-7 cells with or without 25 μM dicoumarol (sulforhodamine B assay). Type of series: cell-based, human. Put shortly:
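MCF-7 cells, which express high NQO1, were exposed to compounds for 2 hours with or without 25 μM dicoumarol. They were then washed and kept 72 hours in fresh media. Cell death was measured by sulforhodamine B assay.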

The next series addresses NQO1 (Homo sapiens, UniProt P15559). The experiment in a line: NQO1 enzymatic measurements in vitro. Format: biochemical. Particulars: 1 μM substrate. The method, then:
As further evidence that the activity of these DNQ derivatives is dependent on their ability to be reduced by NQO1, full enzymatic measurements in vitro were performed. We found a strong correlation between catalytic efficiency of substrates in vitro and their cell culture toxicity. […] This provides strong evidence that the cytotoxicity of DNQ and its derivatives are dependent primarily upon the activity of NQO1 within the cell.

Series [2] in a line: Aqueous solubility in pH 7.4 PBS by LC-MS. Format: physicochemical. Particulars: phosphate buffered saline, pH 7.4, aqueous buffer, thermodynamic from solid, PBS pH 7.4; Table 4.3. In outline:
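Solid compound was sonicated 30 min in pH 7.4 PBS (the bath warmed to 45 °C, samples were cooled before filtration) and passed through a 0.45 μm filter. Filtrate was quantified by LC-MS with UV at 275 nm against a 1–100 μM DNQ calibration curve, which was also applied to derivatives. Strongly coloured filtrates were diluted 10-fold in PBS.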

Series [3] can be described thus: Solubility in 20% HPβCD solution (pH modulation protocol). Format: physicochemical. Particulars: 20% HPβCD. How it is done:
The protocol for formulating DNQ compounds in HPβCD is as follows: the DNQ compound is slurried in a 20% solution of HPβCD in pH 7.4 PBS and the pH is then increased by the addition of 10 M NaOH to induce dissolution of the DNQ compound. The pH is returned to pH 7.5-8.0 by the careful addition of 1 M HCl. A 3.3 mM solution of the DNQ compound can be made by this method which is stable at least 24 hours. This represents a 30-fold increase in solubility of DNQ over PBS alone.
Although we were pleased to find active derivatives of DNQ that were up to 4-fold more soluble in water—sufficiently soluble for continuous IV infusion for human administration—this level of solubility was insufficient for animal studies by bolus injection. […] We used the same pH modulation protocol outlined for DNQ described in the specification above. The results are organized in Table 4.3 and FIG. 8. While all compounds were more soluble in HPβCD than in buffer alone, the fold increase in solubility varied widely.

A short description of series [4]: Solubility in organic solvents. Type of series: physicochemical. Particulars: for solubility: organic solvent or mixture, thermodynamic from solid. The method, then: The solubility of DNQ derivatives in organic solvents was determined by measuring the amount of a given solvent required to dissolve a known amount of compound. Solvent was added to the compound in 50 μL aliquots and the slurry was sonicated. […] Solubility was assessed in DMSO, dichloromethane, and 33% methanol in dichloromethane (FIGS. 9, 10, and 11, respectively).

Series [5] in a line: Maximum tolerated dose in mice. Particulars: mouse, in vivo, ip. The text has this: (§1) Because of the difficulty of repeated tail vein injections in mice, our group is using IP administration of compound.
(§2) All of these derivatives are currently being assessed for their maximum tolerated dose (MTD) in healthy mice. Compounds are formulated in HPβCD and delivered by IP injection to two mice once daily for five days.

The test system of the next series is healthy mice. The experiment in a line: in vivo. Conditions: mouse, 5 days.
Source text: as §1, §2

For another series, the system named is PAR-PARP1. The experiment in a line: PARP1 hyperactivation (PAR-PARP1 formation) in vivo in orthotopic Lewis Lung Carcinoma model, immunoblotting. Details: species or system NOD/SCID mice. Particulars: iv at or near MTD. The method, then:
Antibodies that specifically detect poly(ADP-ribosyl)ated α-PAR (BD Pharmingen, San Jose, Calif.) proteins (e.g., the most abundant species, poly(ADP-ribosyl)ated PARP1, PAR-PARP1) and α-PARP1 (sc-8007, Santa Cruz Biotechnology) antibodies were used at 1:4000 and 1:2000 dilutions, respectively. α-Tubulin was monitored for loading.
To generate a known control to monitor the formation of poly(ADP-ribose)ylated-polymerase 1 (PAR-PARP1) in cells, LLC tumor cells were treated in vitro with hydrogen peroxide (H2O2, 0.5 μM) for 15 minutes, and whole cell protein lysates were separated by SDS-PAGE using the α-PAR (BD Pharmingen, San Jose, Calif.) antibody described above. PAR-PARP1 formation was then assessed by immunoblot analyses as previously described in Huang et al., Cancer Research, 2012.
LLC cells (1.0×10^6) were intravenously (iv) injected into the tail veins of female 18-20 gram NOD/SCID mice. Establishment of tumor nodules in the lungs of exposed mice were confirmed by bioluminescence and mice (5/group) were treated intravenously (via tail vein injection) with: (i) hydroxypropyl-beta-cyclodextrin (HPRCD) vehicle alone; (ii) DNQ (7.5 mg/kg); (ii) DNQ-87 (14 mg/kg); (iii) DNQ-107 (10 mg/kg); or (vi) DNQ 9-251 (20 mg/kg) dissolved in HPRCD. At specific times indicated (in mins) after injection of vehicle or drug, mice were euthanized, lungs removed and tumor nodules harvested. […] Extracts from cells treated with H2O2 were used as controls for monitoring PAR-PARP1 formation in LLC tumor cells.
Background: A western blot detects proteins with antibodies after separation by electrophoresis.

Series [6] can be described thus: Solubility in organic solvents. Format: physicochemical. Particulars: Table 1.
For series [7] the following is noted: pH 7.4 PBS; cited from earlier work.
For series [8] the following is noted: 20% HPβCD in H2O; cited from earlier work.
For series [9] the following is noted: reported; cited from earlier work.
For another series, the system named is NQO1+ cells. Particulars: in vitro; cited from earlier work.

A word on the solubility: it is the concentration that dissolves in the medium under given conditions. The term MTD denotes the largest dose that counted as tolerated. By aqueous solubility is commonly meant the dissolved amount per volume that the medium holds.

≈ marks a conversion by molar mass, not a printed value. Where “and” joins values, the source holds several entries; their conditions need not be identical. Equal entries are not always repeated. Where two headings read alike, the source gives them in different places.

Chain of NQO1 (P15559 whole entry): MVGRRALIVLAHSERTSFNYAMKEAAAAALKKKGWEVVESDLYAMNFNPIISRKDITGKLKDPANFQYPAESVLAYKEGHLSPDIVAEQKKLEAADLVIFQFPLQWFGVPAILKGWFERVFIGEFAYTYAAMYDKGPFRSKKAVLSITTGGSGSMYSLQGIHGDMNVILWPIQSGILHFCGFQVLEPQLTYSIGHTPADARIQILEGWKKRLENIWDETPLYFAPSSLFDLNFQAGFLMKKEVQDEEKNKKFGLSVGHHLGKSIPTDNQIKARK

“2-hydroxypropyl-beta-cyclodextrin [HPβCD]”: the “tolerated dose by IP injection” value in [1] is over 5000 mg/kg. Besides, in the series on rats, the “MTD by IV injection” value was “approximately 2.25 g/kg”.
Regarding `Cc1cc(=O)[nH]c2c1C(=O)c1c(C)cc(=O)n(CCC(C)(C)C)c1C2=O` [Compound 9-251], the IC50 with MCF-7 cells (Homo sapiens, MCF7, Table 1, read-out: MCF7 IC50) was 0.19 ± 0.02 µM; with MCF-7 cells (Homo sapiens, MCF7, Table 4.2, no DIC, ± s.e., read-out: IC50 vs. MCF-7 cells) it was 0.22 ± 0.04 µM; in the series with MCF-7 cells (Homo sapiens, MCF7, classification in figure legends of FIGS. 7-11, read-out: IC50 ("active" / generally "inactive" compounds)), under 0.5 µM; in the series on MCF-7 cells (Homo sapiens, MCF7, read-out: IC50 vs. MCF-7 cells +25 μM DIC, Table 4.2, +25 μM DIC, ± s.e.), 1.6 ± 0.6 µM. The “Fold Protection of MCF7 cells w/ 25 μM dicoumarol” value in the series on MCF-7 cells (Table 1) was 8. Also, in the series on MCF-7 cells (Table 4.2), the “Fold protection by DIC” value was found to be 7.1. The “NQO1 Initial Velocity @ 1 μM” value on NQO1 stood at 2000 ± 100. Besides, the concentration in solution in series [2] (solubility at 30 min) was 0.007 mM (≈ 2.48 µg/mL). Moreover, in [3], the “fold increase in solubility in HPβCD over PBS alone” value came out at 3000 fold. The solubility in series [3] (20% HPβCD in pH 7.4 PBS, pH 7.4, aqueous with cosolvent or surfactant or cyclodextrin, thermodynamic from solid, Table 4.3) came to 19 mM (≈ 6730 µg/mL); in [4] (2:1 CH2Cl2:MeOH, Table 4.3, read-out: Solubility in 2:1 CH2Cl2:MeOH) it was 120 mM (≈ 42500 µg/mL); in series [4] (CH2Cl2:MeOH 2:1, Table 1, read-out: CH2Cl2:MeOH 2:1 solubility), 120 mM (≈ 42500 µg/mL); in series [4] (CH2Cl2, Table 1, read-out: CH2Cl2 solubility), 31 mM (≈ 11000 µg/mL); in series [4] (DMSO, Table 1, read-out: DMSO solubility), 15 mM (≈ 5320 µg/mL); in series [6] (organic solvent or mixture, thermodynamic from solid, THF) it was 23 mM (≈ 8150 µg/mL). The “Solubility in CH2Cl2” value in series [4] (CH2Cl2, Table 4.3) stood at 31 mM (≈ 11000 µg/mL). For the same molecule, the “Solubility in DMSO” value in [4] (DMSO, Table 4.3) is listed as 15 mM (≈ 5320 µg/mL). The MTD at 5 days in series [5] is 22 mg/kg and 62 µmol/kg. Also, in the series on healthy mice, the “tolerated concentration relative to DNQ” value amounted to 3.5 fold. Besides, the “PAR-PARP1 formation in tumor tissue” value with PAR-PARP1 was “higher levels of PAR-PARP1 formation”.
Regarding `CC1(C)CCC2=C(O1)c1ccccc1C(=O)C2=O` [β-lap, β-lapachone, reference compound], the “Fold Protection of MCF7 cells w/ 25 μM dicoumarol” value in the series on MCF-7 cells (Table 1) came to 2.1. Moreover, the IC50 in the series with MCF-7 cells (Table 1, read-out: MCF7 IC50) was determined as 3.7 µM. The “NQO1 Initial Velocity @ 1 μM” value at NQO1 is given as 150. Besides, the “CH2Cl2:MeOH 2:1 solubility” value in series [4] (CH2Cl2:MeOH 2:1, Table 1) came to 1400 mM. In [4] (CH2Cl2, Table 1), this molecule registered a CH2Cl2 solubility of 1650 mM. Besides, the DMSO solubility in series [4] (DMSO, Table 1) is recorded as 170 mM. Besides, the aqueous solubility in series [7] was about 0.16 mM (≈ 38.8 µg/mL). Besides, in [8], the “fold increase in solubility in HPβCD” value was about 150 fold. The THF solubility in series [6] amounted to 660 mM. Moreover, in series [9], the “time to complete degradation in whole blood” value is on record as at most 30 min. Also, the LD50 in the series with NQO1+ cells is 2 to 10 µM.

The values above are taken from patent publication US10285986B2, “Compounds and anti-tumor NQO1 substrates” (The Board of Trustees of the University of Illinois, priority 2011, dated 2019).
